Assay results: US10913781B2, “Pepducin design and use” (Tufts Medical Center, Inc., priority 2011, dated 2021)
Read-outs that look alike come from different tables or passages of the source. Peptide text beside a SMILES is read from it. * marks the point of attachment. Palmitoyl = CCCCCCCCCCCCCCCC(=O)*

Tests used:
A549 xenografts = type: in vivo, mouse; settings: mouse, in vivo
Procedure: (§1) FIG. 13 illustrates that monotherapy with PAR1-i3 pepducins inhibits tumor progression of A549 xenografts. (A) and (B): A549 mice treated with vehicle, P1pal-7, P1pal-i1-11, P1pal-10S, X1/2-i1, X1/2-i3, or Avastin. Each time point represents the mean±SE. (C): Final tumor volume at the completion of the experiment was calculated as a percentage of untreated vehicle control. (D): Serum-starved A549 adenocarcinoma cells were pretreated with P1pal-7, P1pal-10S, P1pal-i1-11, vehicle, or PD98059 and stimulated with thrombin. VEGF production was assessed by enzyme-linked immunosorbent assay. Data are expressed as mean±SD (*P<0.05, **P<0.01).
PAR1 expression level is correlated with reduced survival of patients with NSCLC. To define the relative importance of PAR1 in lung tumor progression, in vivo mouse models were used. […] An A549 lung adenocarcinoma xenograft model in nude mice was used to evaluate monotherapy with P1pal-7, P1pal-10S, P1pal-i1-11, or the VEGF antagonist Avastin.

[1] = system: A549, HOP62, and HOP92 lung carcinoma cell lines; assay: Cytotoxicity/cell viability of lung carcinoma cells (MIT assay); type: cell-based, human; settings: 3-day period
VEGF-A production = assay: Thrombin-dependent VEGF-A production in A549 cells (ELISA); type: cell-based, human; settings: A549, 18 hours thrombin treatment
Procedure: as §1
Because the i3-based P1pal-7 pepducin had similar efficacy as Avastin in suppressing lung tumor growth of A549 xenografts, VEGF-A production was measured in the A549 tumor cells after 18 hours thrombin treatment. […] Unlike in ovarian cancer, no increase was found in PAR1-mediated IL-8 production in A549 cells, consistent with the observed lack of efficacy of CXCR1/2 pepducins in the A549 xenograft models. These xenograft data provide support for the role of a novel PAR1-ERK1/2-VEGF paracrine pathway that is an effective therapeutic target in the A549 adenocarcinoma lung cancer model.

PAR1 [2] = biological target: T1, PAR1 (Homo sapiens, UniProt P25116); assay: ERK1/2 phosphorylation in A549 cells (thrombin or […]), Western blot; type: cell-based; design: endogenous in cells; host or cells: A549, HOP62, H1299, H522, H226, HOP92 lung carcinoma lines
T1 sequence (P25116 22-425): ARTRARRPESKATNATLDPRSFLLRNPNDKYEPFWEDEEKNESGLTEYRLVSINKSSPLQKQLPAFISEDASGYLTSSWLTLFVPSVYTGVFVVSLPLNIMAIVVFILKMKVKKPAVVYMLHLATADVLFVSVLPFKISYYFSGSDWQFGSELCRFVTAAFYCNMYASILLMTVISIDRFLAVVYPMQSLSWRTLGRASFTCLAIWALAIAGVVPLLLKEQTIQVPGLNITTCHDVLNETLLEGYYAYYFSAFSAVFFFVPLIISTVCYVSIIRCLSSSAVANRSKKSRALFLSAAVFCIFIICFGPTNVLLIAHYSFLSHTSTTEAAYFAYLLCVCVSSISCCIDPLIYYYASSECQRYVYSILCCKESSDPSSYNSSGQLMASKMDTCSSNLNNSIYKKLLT
Procedure: FIG. 9 illustrates that differential inhibition of PAR1-ERK activation by i3- and i1-derived PAR1 pepducins. (A-C): Western blots of lysates from A549 cells untreated, or treated with thrombin, SLIGKV (SEQ ID NO:29), or AYPGKF (SEQ ID NO:5). Indicated samples were pretreated with various concentrations (0.1 to 3 μmol/L) of P1pal-7, P1pal-10S, or P1pal-i1-11 before stimulation and immunoblotted with anti-phospho-ERK. (D-F): Quantification of the Western blots in (A-C) were conducted by densitometry and results are expressed relative to maximum (fold max) phosphorylation of pERK.
(B): A549 cells stimulated with 10 μM […] over 2 h. A549 cells pretreated with 0.1 μM P1pal-7 and stimulated with 10 μM […] (SEQ ID NO:30) for 5 min. Total ERK was used as a loading control.
Last, there has been a great deal of interest in understanding the mechanism of PAR1-mediated activation of MAP kinase cascade and PAR1-dependent cellular growth and differentiation, proliferation and gene transcription. […] The effects of i1 versus i3 PAR1 pepducins on ERK1/2 activation were examined in the A549 lung adenocarcinoma cell line. […] Inhibition experiments with a range of pepducin concentrations (0.1-3 μM) were conducted. […] The […] (SEQ ID NO:30) peptide gave a rapid and transient ERK1/2 phosphorylation signal that peaked at 5-15 min after stimulation. […] To determine the specificity of the PAR1 pepducin inhibitors, their effects on the closely related PAR2 and PAR4 receptors were also tested.

PAR1 [3] = biological target: T1, PAR1; assay: Migration of primary patient lung tumor cells; type: cell-based; design: endogenous in cells; host or cells: A549, HOP62, H1299, H522, H226, HOP92 lung carcinoma lines
Procedure: FIG. 12 illustrates that PAR1 is a promigratory factor in lung cancer cells. (A-F): Inhibition of lung cancer migration in adenocarcinomas A549, HOP62, H1299 and H522, H226 squamous, and HOP92 large cell using PAR1 pepducins. Pepducins at […] (P1pal-7, P1pal-10S, P1pal-i1-11, or negative control P1pal-19EE) were added to the lower well. (G): Cell from primary lung tumors or nonmalignant control were pretreated with PAR1 pepducins and migration was determined (*P<0.05, **P<0.01).
Further experiments were carried out to determine whether migration of the primary carcinoma cell lines isolated from lung tumors could be inhibited by PAR1 pepducins (FIG. 12G). […] Likewise, the RWJ-56110 small-molecule antagonist of PAR1 (Andrade-Gordon, et al., Proc. Natl Acad Sci USA, 96 (1999), pp. 12257-12262) suppressed up to 55% of the migration of primary lung tumor cells toward NIH-3T3 conditioned media. The PAR1 antagonist pepducin P1pal-7 and P1pal-i1-11 had no effect on the low-expressing PAR1 cell line derived from benign lung tissue, which migrated poorly (FIG. 12G).

[4] = Pharmacokinetics of PAR1 pepducins in CF-1 mice, plasma LC/MS/MS; type: in vivo, mouse; settings: for Cmax: read-out: Peak plasma level
Procedure: FIG. 14 illustrates pharmacokinetics of PAR1 pepducins. (A): CF-1 mice were injected subcutaneously with P1pal-7 (3 mg/kg, open circles), P1pal-7 (10 mg/kg, closed circles), P1pal-10S (10 mg/kg, gray circles), or P1pal-i1-11 (10 mg/kg, open squares) in 20% dimethyl sulfoxide and blood was collected at indicated time points (n=3). Pepducin levels in plasma were quantified with LC/MS/MS. (B): Daily (D1 to D6) plasma levels of P1pal-7 after subcutaneous injection of 10 mg/kg P1pal-7 were measured at 1 hour (open circles) and 24 hours (open squares).
Pharmacokinetics of plasma levels of P1pal-7, P1pal-10S, and P1pal-i1-11 at 30 minutes, and at 1, 2, 4, 6, 8, and 16 hours was measured by LC/MS/MS to determine steady-state pepducin drug levels and the rate of elimination from mice. Subcutaneous injections of P1pal-7 (3 mg/kg or 10 mg/kg) into wild-type CF-1 mice (25 to 30 g) was followed by blood collection at various time points from the vena cava. […] Residual P1pal-7 levels were 10 nmol/L at the 16-hour time point. After the 4-hour plateau, the elimination rate was linear from 4 to 16 hours. The peak plasma level of 3 mg/kg P1pal-7 reached 0.6 μmol/L at 2 hours and elimination was linear between 2 hours and 16 hours. P1pal-10S (10 mg/kg) gave similar peak plasma level of 1.0 μmol/L as P1pal-7 (10 mg/kg) at 1 hour.
Lastly, the peak plasma level of P1pal-7 (10 mg/kg) was measured before and 1 hour after once-daily subcutaneous injection over 6 days to determine whether the peak plasma levels were consistent on daily administration.

CCCCCCCCCCCCCCCC(=O)N[C@@H](CCCCN)C(=O)N[C@@H](CCCCN)C(=O)N[C@@H](CO)C(=O)N[C@@H](CCCNC(=N)N)C(=O)N[C@@H](C)C(=O)N[C@@H](CC(C)C)C(=O)N[C@@H](Cc1ccccc1)C(N)=O [P1pal-7] (Palmitoyl-KKSRALF-NH2)
Inhibition of tumor progression/growth (final tumor volume vs vehicle) (A549 xenografts): 75% | Sensitivity of A549 cells (cytotoxicity) [1]: most sensitive | Effect on thrombin-dependent VEGF-A production (VEGF-A production): completely blocked | Block of PRSFLLRN-induced phospho-ERK signal (PAR1 [2]; 0.1 μM pepducin, 10 μM PRSFLLRN, 5 min, A549): completely block | Effect on thrombin-induced ERK1/2 phosphorylation (PAR1 [2]; A549 cells, pepducin 0.1-3 μM): complete inhibition | Effect on migration of low-expressing PAR1 cell line derived from benign lung tissue (PAR1 [3]): no effect | Duration of peak plasma level ([4]; 10 mg/kg s.c.): 4 h | Cmax ([4]; CF-1, mouse, plasma, sc, 3 mg/kg s.c.): 600 nM | level at time molar at 6 h ([4]; CF-1, mouse, plasma, sc, 10 mg/kg s.c., read-out: Plasma level at the 6-hour time point): 200 nM | level at time molar at 16 h ([4]; CF-1, mouse, plasma, sc, 10 mg/kg s.c., read-out: Residual plasma level at the 16-hour time point): 10 nM | Accumulation in plasma after daily dosing ([4]; daily subcutaneous dosing, mouse): does not accumulate in plasma | Cmax ([4]; mouse, plasma, sc, 10 mg/kg s.c., CF-1 mice): 1100 nM
